By IC50 is commonly meant the midpoint of a concentration-inhibition curve.

Drawing on ChEMBL document CHEMBL5104220, “Development of Gilteritinib-Based Chimeric Small Molecules that Potently Induce Degradation of FLT3-ITD Protein” (ACS Med Chem Lett, 2022), this text covers inhibition, Activity and IC50 for six compounds.

SMILES strings stand for the structures. Active and inactive are the calls of the source. No cut-off for these calls is given here.

Test [1] addresses T1, Signal transducer and activator of transcription 5A (Homo sapiens) (UniProt P42229).
T1 sequence (whole entry): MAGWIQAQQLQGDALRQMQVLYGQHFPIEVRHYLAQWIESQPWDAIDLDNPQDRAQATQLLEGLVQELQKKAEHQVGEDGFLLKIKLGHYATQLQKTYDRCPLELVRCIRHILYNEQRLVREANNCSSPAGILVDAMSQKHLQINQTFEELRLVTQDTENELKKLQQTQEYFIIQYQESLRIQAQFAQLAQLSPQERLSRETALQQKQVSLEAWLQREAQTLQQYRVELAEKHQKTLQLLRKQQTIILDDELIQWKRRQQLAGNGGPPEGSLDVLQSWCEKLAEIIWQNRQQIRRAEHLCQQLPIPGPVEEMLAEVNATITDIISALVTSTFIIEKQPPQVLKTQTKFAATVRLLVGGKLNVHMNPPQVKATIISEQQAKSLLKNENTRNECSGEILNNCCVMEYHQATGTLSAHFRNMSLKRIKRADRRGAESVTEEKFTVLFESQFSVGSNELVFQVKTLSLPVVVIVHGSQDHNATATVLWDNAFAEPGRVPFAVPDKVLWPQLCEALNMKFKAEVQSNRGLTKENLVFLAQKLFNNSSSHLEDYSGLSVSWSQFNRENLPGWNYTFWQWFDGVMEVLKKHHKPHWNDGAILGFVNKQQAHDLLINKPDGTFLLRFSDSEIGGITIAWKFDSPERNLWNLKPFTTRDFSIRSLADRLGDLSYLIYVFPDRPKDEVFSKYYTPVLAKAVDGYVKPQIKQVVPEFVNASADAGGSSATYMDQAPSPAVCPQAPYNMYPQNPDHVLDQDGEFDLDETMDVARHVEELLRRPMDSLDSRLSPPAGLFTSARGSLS
Briefly: Inhibition of STAT5 phosphorylation in human MV4-11 cells at 0.03 to 3 uM incubated for 24 hrs by Western blot analysis. In kind it is cell-based. Particulars: dose 0.03-3 µM.

Test [2] has as its system Protein cereblon/Receptor-type tyrosine-protein kinase FLT3 (Homo sapiens), P36888+Q96SW2 [UNDEFINED MUTATION]. The test can be described thus: PROTAC activity at CRBN/FLT3-ITD mutant in human MV4-11 cells assessed as inhibition of FLT3 phosphorylation at 0.03 to 3 uM incubated for 24 hrs by Western blot analysis. In kind it is cell-based. The conditions noted are these: dose 0.03-3 µM. A general note: Immunoblotting shows a protein as a band on a membrane.

For test [3] the test system is unchanged. The test can be described thus: PROTAC activity at CRBN/FLT3-ITD mutant in human MV4-11 cells assessed as inhibition of STAT5 phosphorylation at 0.03 to 3 uM incubated for 24 hrs by Western blot analysis. In kind it is cell-based. The conditions noted are these: dose 0.03-3 µM.
The test system is the same in test [4]. The test can be described thus: PROTAC activity at CRBN/FLT3-ITD mutant in human MOLM-14 cells assessed as decrease in FLT3 protein expression at 0.03 to 3 uM incubated for 24 hrs by Western blot analysis. The class given is cell-based. The conditions noted are these: dose 0.03-3 µM.
Test [5] has the same test system. Briefly: PROTAC activity at CRBN/FLT3-ITD mutant in human MV4-11 cells assessed as decrease in FLT3 protein expression at 0.03 to 3 uM incubated for 24 hrs by Western blot analysis. In kind it is cell-based. The conditions noted are these: dose 0.03-3 µM.
The test system is the same in test [6]. The test can be described thus: PROTAC activity at CRBN/FLT3-ITD mutant in human MOLM-14 cells assessed as decrease in LTK protein expression by Western blot analysis. The class given is cell-based.
Test [7] shares this test system. Briefly: PROTAC activity at CRBN/FLT3-ITD mutant in human MV4-11 cells assessed as decrease in FLT3 protein expression at 0.3 to 3 uM incubated for 18 hrs in the presence of bafilomycin A1 by Western blot analysis. In kind it is cell-based. The conditions noted are these: dose 0.3-3 µM.
Test [8] has the same test system. Briefly: PROTAC activity at CRBN/FLT3-ITD mutant in human MOLM-14 cells assessed as decrease in IKZF1 protein expression at 0.01 to 0.3 uM incubated for 24 hrs by Western blot analysis. In kind it is cell-based. The conditions noted are these: dose 0.01-0.3 µM.
Test [9] shares this test system. Briefly: PROTAC activity at CRBN/FLT3-ITD mutant in human MV4-11 cells assessed as decrease in LTK protein expression by Western blot analysis. In kind it is cell-based.
The test system is the same in test [10]. Briefly: PROTAC activity at CRBN/FLT3-ITD mutant in human MOLM-14 cells assessed as decrease in FLT3 mRNA expression at 0.03 to 3 uM incubated for 24 hrs by RT-qPCR analysis. In kind it is cell-based. Particulars: dose 0.03-3 µM. (Real-time PCR tracks product formation cycle by cycle.)
Test [11] has the same test system. The test can be described thus: PROTAC activity at CRBN/FLT3-ITD mutant in human MV4-11 cells at 30 nM measured upto 32 hrs in the presence of cycloheximide by Western blot analysis. In kind it is cell-based.
The test system of test [12] is MOLM-14. The test can be described thus: Antiproliferative activity against human MOLM-14 cells harboring FLT3-ITD mutant assessed as inhibition of cell proliferation incubated for 72 hrs by WST-8 assay. In kind it is functional, cell-based. Particulars: MOLM-14, 72 h.
Test [13] concerns Protein cereblon/Receptor-type tyrosine-protein kinase FLT3 (Homo sapiens), P36888+Q96SW2 [UNDEFINED MUTATION]. The test can be described thus: PROTAC activity at CRBN/FLT3-ITD mutant in human MOLM-14 cells assessed as decrease in ALK protein expression by Western blot analysis. In kind it is cell-based.
For test [14] the test system is unchanged. Briefly: PROTAC activity at CRBN/FLT3-ITD mutant in human MV4-11 cells assessed as decrease in ALK protein expression by Western blot analysis. In kind it is cell-based.
For test [15] the test system is unchanged. Briefly: PROTAC activity at CRBN/FLT3-ITD mutant in human MV4-11 cells assessed as decrease in IKZF1 protein expression at 0.01 to 0.3 uM incubated for 24 hrs by Western blot analysis. In kind it is cell-based. Particulars: dose 0.01-0.3 µM.
Test [16] has as its system MV4-11. Briefly: Antiproliferative activity against human MV4-11 cells harboring FLT3-ITD mutant assessed as inhibition of cell proliferation incubated for 72 hrs by WST-8 assay. The class given is functional, cell-based. Particulars: MV4-11, 72 h.

Sequence of Protein cereblon/Receptor-type tyrosine-protein kinase FLT3 (Homo sapiens), P36888+Q96SW2 [UNDEFINED MUTATION] (P36888 whole entry, looked up, change not shown): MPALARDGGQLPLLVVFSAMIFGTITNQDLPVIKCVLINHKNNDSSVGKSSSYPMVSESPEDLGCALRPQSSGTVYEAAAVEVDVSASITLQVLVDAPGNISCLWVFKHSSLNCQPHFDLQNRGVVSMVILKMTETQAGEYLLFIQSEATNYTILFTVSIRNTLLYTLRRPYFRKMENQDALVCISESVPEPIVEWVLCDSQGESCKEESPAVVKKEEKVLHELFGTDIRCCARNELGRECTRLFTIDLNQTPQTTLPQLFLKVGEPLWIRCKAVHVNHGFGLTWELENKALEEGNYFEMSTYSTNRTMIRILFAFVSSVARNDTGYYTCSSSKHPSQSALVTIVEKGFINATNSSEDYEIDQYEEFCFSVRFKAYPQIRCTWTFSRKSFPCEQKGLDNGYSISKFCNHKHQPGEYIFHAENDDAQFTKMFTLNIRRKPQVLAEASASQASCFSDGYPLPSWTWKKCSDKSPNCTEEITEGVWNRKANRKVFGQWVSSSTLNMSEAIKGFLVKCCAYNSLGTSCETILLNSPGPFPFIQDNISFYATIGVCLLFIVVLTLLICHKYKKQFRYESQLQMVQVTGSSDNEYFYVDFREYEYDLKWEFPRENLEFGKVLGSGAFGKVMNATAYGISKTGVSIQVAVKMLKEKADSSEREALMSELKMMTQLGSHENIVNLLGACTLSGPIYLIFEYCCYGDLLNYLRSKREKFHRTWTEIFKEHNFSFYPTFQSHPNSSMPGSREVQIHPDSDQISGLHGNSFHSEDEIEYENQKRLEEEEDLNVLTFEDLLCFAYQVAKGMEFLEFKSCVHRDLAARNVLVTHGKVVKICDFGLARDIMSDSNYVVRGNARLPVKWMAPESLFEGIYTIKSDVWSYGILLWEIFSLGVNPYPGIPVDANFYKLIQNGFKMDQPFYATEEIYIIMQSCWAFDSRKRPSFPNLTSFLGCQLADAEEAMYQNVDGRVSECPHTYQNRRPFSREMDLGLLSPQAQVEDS
Sequence of Protein cereblon/Receptor-type tyrosine-protein kinase FLT3 (Homo sapiens), P36888+Q96SW2 [UNDEFINED MUTATION] (Q96SW2 whole entry, looked up, change not shown): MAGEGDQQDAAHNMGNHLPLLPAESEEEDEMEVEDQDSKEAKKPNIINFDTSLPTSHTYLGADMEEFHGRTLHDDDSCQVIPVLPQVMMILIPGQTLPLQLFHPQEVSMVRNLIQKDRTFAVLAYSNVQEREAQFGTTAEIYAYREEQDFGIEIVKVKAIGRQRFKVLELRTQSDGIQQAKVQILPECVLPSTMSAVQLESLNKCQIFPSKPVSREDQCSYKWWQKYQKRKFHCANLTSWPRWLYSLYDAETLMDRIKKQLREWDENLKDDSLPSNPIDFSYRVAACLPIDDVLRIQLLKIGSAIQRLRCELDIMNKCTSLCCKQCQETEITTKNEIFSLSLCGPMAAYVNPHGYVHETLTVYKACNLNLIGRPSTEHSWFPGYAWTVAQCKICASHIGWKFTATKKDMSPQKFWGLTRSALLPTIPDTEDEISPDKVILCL

Regarding `CCc1nc(C(N)=O)c(Nc2ccc(N3CCC(N4CCN(C)CC4)CC3)c(OC)c2)nc1NC1CCOCC1`, in [1], the inhibition entry was “Active”.

Take `CC1(COc2ccc3c(c2)ncn3-c2ccc3cccc(N4CCC(N)CC4)c3n2)COC1`: the inhibition result in [1] was “Active”.

Turning to `CCc1nc(C(N)=O)c(Nc2ccc(N3CCC(N4CCN(CC5CCN(C(=O)CCOCCOCCOCCOCCNc6cccc7c6C(=O)N(C6CCC(=O)NC6=O)C7=O)CC5)CC4)CC3)c(OC)c2)nc1NC1CCOCC1` (stereo unspecified), the outcome in test [2], in [3], in test [4] and in [5] was Active.

As to `CNC(=O)c1cc(Oc2ccc(NC(=O)Nc3ccc(Cl)c(C(F)(F)F)c3)cc2)ccn1`, in [1], the inhibition entry is “Active”.

With `CCc1nc(C(N)=O)c(Nc2ccc(N3CCC(N4CCN(CC5CCN(C(=O)CCOCCOCCNc6cccc7c6C(=O)N(C6CCC(=O)NC6=O)C7=O)CC5)CC4)CC3)c(OC)c2)nc1NC1CCOCC1` (stereo unspecified), the result in [6], in test [7], in test [8], in test [9], in test [4] and in [10] was Active. Moreover, the outcome in [11], in [5], in test [13], in [14] and in [15] was Active. Further, the IC50 in test [12] turned out to be 2.8 nM; in test [16], 0.9 nM.

As to `CC(C)(C)c1cc(NC(=O)Nc2ccc(-c3cn4c(n3)sc3cc(OCCN5CCOCC5)ccc34)cc2)no1`, in test [1], the inhibition result is “Active”.
